Measured values: patent publication US20220370463A1, “STABILIZED C-FMS INTRACELLULAR FRAGMENTS (FICD) PROMOTE OSTEOCLAST DIFFERENTIATION AND ARTHRITIC BONE EROSION” (New York Society for the Relief of the Ruptured and …, priority 2019, published 2022)

Assays:
[1] = system: NFATc1; assay: RANKL-induced NFATc1 expression in human OCPs (immunoblot, qPCR); assay type: cell-based
Method: (a and b) BMDMs from WT and FICDtg^M mice was stimulated with RANKL (50 ng/ml) at the indicated time. (a) RT-qPCR of Nfatc1 mRNA normalized relative to Hprt mRNA. (b) Immunoblot with anti NFATc1, HA, or α-tubulin antibodies. (c and d) BMDMs from Csf1r^f/+ Mx1-Cre mice were transduced by lentiviruses encoding FMS^wt, or FMS^mut and then cultured with M-CSF and RANKL. (c) Immunoblot of whole lysate with anti-NFATc1 antibody. α-tubulin was used as a control. […] The intensity of NFATc1 in FMS^mut was set as 100%. (d) Expression mRNA level of NFATc1. (e) Immunoblot of whole cell lysates with phospho-eIF4E antibodies. HA-tagged FICD was detected by HA-antibody. α-tubulin was used as a control. […] (f and g) Human CD14+ cells were treated with CGP57380 at the indicated doses for one hour and cultured with RANKL for one day. […] (g) Nfatc1 mRNA expression was measured by qPCR relative to HPRT. A DMSO-treated RANKL condition was set as 100%. […]
(§1) Whole cell extracts were prepared by lysis in buffer containing 1× Lamin sample buffer (Bio-rad) and 2-Mercaptoethanol (Sigma) or RIPA buffer (Sigma). […] The protein concentration of nuclear extracts was quantitated using the Bradford assay (Bio-Rad; 5000001). For immunoblot, proteins were separated on 7.5 or 10% SDS-PAGE gels, transferred to polyvinylidene difluoride membranes (PVDF, Millipore; ISEQ00010), and detected by antibodies as listed in the figure legends.

[2] = system: BMDM cells; assay: Mouse osteoclastogenesis assay in BMDMs (TRAP-positive multinuclear cells); assay type: cell-based
Method: (a and b) BMDMs from WT and FICDtg^M mice was stimulated with RANKL (50 ng/ml) at the indicated time. (a) RT-qPCR of Nfatc1 mRNA normalized relative to Hprt mRNA. (b) Immunoblot with anti NFATc1, HA, or α-tubulin antibodies. (c and d) BMDMs from Csf1r^f/+ Mx1-Cre mice were transduced by lentiviruses encoding FMS^wt, or FMS^mut and then cultured with M-CSF and RANKL. (c) Immunoblot of whole lysate with anti-NFATc1 antibody. α-tubulin was used as a control. […] The intensity of NFATc1 in FMS^mut was set as 100%. (d) Expression mRNA level of NFATc1. (e) Immunoblot of whole cell lysates with phospho-eIF4E antibodies. HA-tagged FICD was detected by HA-antibody. α-tubulin was used as a control. […] (f and g) Human CD14+ cells were treated with CGP57380 at the indicated doses for one hour and cultured with RANKL for one day. […] (g) Nfatc1 mRNA expression was measured by qPCR relative to HPRT. A DMSO-treated RANKL condition was set as 100%. (h) Osteoclastogenesis assay. […]
(A and B) BMDMs from WT and FICDtg^M mice were cultured with RANKL for 24 hours. […] HA-tagged FICDs were detected by HA-antibody. α-tubulin or P38 was used as a control. […]
For human osteoclastogenesis assays, cells were added to 96 well plates in triplicate at a seeding density of 5×10^4 cells per well. […] Multinucleated (greater than 3 nuclei), TRAP-positive osteoclasts were counted in triplicate wells. […]

[3] = system: BMDMs from WT and FICDtg^M mice; assay: Cell viability assay in BMDMs; assay type: cell-based, mouse; details: CGP57380 at the indicated doses for one day
Method: (a and b) BMDMs from WT and FICDtg^M mice was stimulated with RANKL (50 ng/ml) at the indicated time. (a) RT-qPCR of Nfatc1 mRNA normalized relative to Hprt mRNA. (b) Immunoblot with anti NFATc1, HA, or α-tubulin antibodies. (c and d) BMDMs from Csf1r^f/+ Mx1-Cre mice were transduced by lentiviruses encoding FMS^wt, or FMS^mut and then cultured with M-CSF and RANKL. (c) Immunoblot of whole lysate with anti-NFATc1 antibody. α-tubulin was used as a control. […] The intensity of NFATc1 in FMS^mut was set as 100%. (d) Expression mRNA level of NFATc1. (e) Immunoblot of whole cell lysates with phospho-eIF4E antibodies. HA-tagged FICD was detected by HA-antibody. α-tubulin was used as a control. […] (f and g) Human CD14+ cells were treated with CGP57380 at the indicated doses for one hour and cultured with RANKL for one day. […] (g) Nfatc1 mRNA expression was measured by qPCR relative to HPRT. A DMSO-treated RANKL condition was set as 100%. (h) Osteoclastogenesis assay. BMDMs from WT and FICDtg^M mice were treated with CPG57380 at the indicated doses and then cultured with RANKL for three days. […] Scale bar: 100 μm. (i) Cell viability assay. BMDMs WT and FICDtg^M mice was stimulated with CPG57380 at the indicated doses for one day. (j-n) K/BxN serum transfer induced arthritis model. 9-week old male C57BL/6J mice were received K/BxN serum on day 0 and day 2. […]

[4] = system: NFATc1; assay: RANKL-induced NFATc1 expression in mouse OCPs (immunoblot, qPCR); assay type: cell-based
Method: (A and B) BMDMs from WT and FICDtg^M mice were cultured with RANKL for 24 hours. Immunoblot of whole cell lysates with phopho-p70S6K and phopho-4E-BP1 antibodies. HA-tagged FICDs were detected by HA-antibody. α-tubulin or P38 was used as a control. (C) BMDMs from female wild type LysM cre mice (WT) or RAPTORf/f-LysM cre mice (Raptor cKO) were cultured with M-CSF for 4 days and were stimulated with RANKL for the indicated days. Immunoblot of whole cell lysates with anti-Raptor, NFATc1, or α-tubulin antibodies. (D-F) BMDMs from WT mice were treated with CPG57380 at the indicated doses and then cultured with RANKL for one day. (D) Immunoblot of whole lysate with anti-NFATc1 antibody. α-tubulin was used as a control. […] The intensity of NFATc1 bands in RANKL treatment conditions (control) was set as 100%. (n=4) (E) Expression mRNA level of NFATc1. […]
as §1

[5] = system: osteoclastogenesis; details: inhibiting proteosomal degradation; cited from earlier work
[6] = CGP57380, RANKL for one day, qPCR

| Structure (SMILES) | Nfatc1 mRNA expression [1, 6] | RANKL-induced NFATc1 protein expression ([1]; CGP57380 one hour, then RANKL for one day) | enhanced osteoclastogenesis in FICDtg^M cells ([2]; BMDMs from FICDtg^M mice, RANKL for three days) | osteoclast differentiation ([2]; BMDMs from WT mice, RANKL for 3 days) | cell viability [3] | Nfatc1 mRNA expression [4, 6] | RANKL-induced NFATc1 protein expression ([4]; CGP57380, then RANKL for one day) | osteoclastogenesis [5] |
| --- | --- | --- | --- | --- | --- | --- | --- | --- |
| Nc1ncnc2n[nH]c(Nc3ccc(F)cc3)c12 [CGP57380] | marginally changed | suppressed RANKL-induced NFATc1 protein expression in a dose-dependent manner | inhibited the enhanced osteoclastogenesis in FICDtg^M cells to become comparable to osteoclasts in WT cells | suppressed osteoclast differentiation in a dose-dependent manner | minimal effect | marginally changed | suppressed RANKL-induced NFATc1 protein expression in a dose-dependent manner |  |
| CC(C)C[C@H](NC(=O)[C@H](Cc1ccccc1)NC(=O)c1cnccn1)B(O)O [bortezomib] |  |  |  |  |  |  |  | suppresses osteoclastogenesis |
